# From patent US5750540A, “1,4-di-substituted piperidine derivatives” (Banyu Pharmaceutical Co., Ltd., priority 1995, dated 1998)
# Read-outs that look alike come from different tables or passages of the source.
# Key:
# [1] = target: T1, muscarinic M1 receptors (Rattus norvegicus, UniProt P08482); assay: Inhibition of binding to muscarinic M1 receptors ([3H]-telenzepine, cerebral cortex membrane)
# T1 construct: a mixture of a membrane specimen from the cerebral cortex; from tissue; host or cells: rat cerebral cortex membranes (SD rat)
# T1 sequence (P08482 1-460): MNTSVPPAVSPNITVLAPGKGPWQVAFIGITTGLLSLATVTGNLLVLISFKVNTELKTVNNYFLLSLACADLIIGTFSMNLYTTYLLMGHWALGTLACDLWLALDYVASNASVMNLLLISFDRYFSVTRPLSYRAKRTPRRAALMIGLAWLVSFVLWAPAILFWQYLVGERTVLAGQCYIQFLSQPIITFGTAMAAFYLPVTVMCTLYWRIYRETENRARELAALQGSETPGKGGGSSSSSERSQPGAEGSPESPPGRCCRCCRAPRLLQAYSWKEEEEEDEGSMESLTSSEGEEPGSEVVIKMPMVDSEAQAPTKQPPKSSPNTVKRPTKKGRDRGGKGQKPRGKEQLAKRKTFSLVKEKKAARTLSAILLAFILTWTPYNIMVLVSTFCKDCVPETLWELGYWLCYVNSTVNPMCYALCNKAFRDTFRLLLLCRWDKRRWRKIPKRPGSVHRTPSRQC
# Description: In these tests, their inhibitory and antagonistic effects were expressed in terms of the dissociation constant (Ki) of each test compound which was calculated from its concentration (IC50 ) causing a 50% inhibition of the binding of a labeled ligand to muscarinic receptors. As the labeled ligand, [^3 H]-telenzepine was used for the muscarinic M1 receptors and [^3 H]-N-methylscopolamine for the muscarinic M2 and M3 receptors.
# A male SD strain rat (purchased from Nippon Charles River Co., Ltd.), weighing about 250-350 g, was sacrificed, and the cerebral cortex, heart and lacrimal glands were excised. Using a Polytron (setting 5), each organ was homogenized in 5 volumes of an ice-cold buffer solution (pH 7.4) containing 50 mM tris-HCl, 5 mM magnesium chloride, 1 mM trisodium ethylenediaminetetraacetate and 20% sucrose. The resulting homogenate was centrifuged at 3,000×g at 4° C. for 15 minutes, and the supernatant was filtered through gauze and ultracentrifuged at 100,000×g at 4° C. for 45 minutes. The resulting precipitate was suspended in an ice-cold buffer solution (pH 7.4) containing 50 mM tris-HCl and 5 mM magnesium chloride (hereinafter referred briefly to as "tris buffer") and ultracentrifuged at 100,000×g at 4° C. for 45 minutes. The resulting precipitate was suspended in tris buffer so as to give a concentration of 50 mg/ml and stored at -80° C. till use. The membrane specimens so prepared were thawed prior to use and submitted to tests for the inhibition of binding to muscarinic receptors.
# 2) Tests for the inhibition of binding to the muscarinic M1 receptors
# These tests were performed according to a modification of the method of Hargreaves et al. [Br. J. Pharmacol., Vol. 107, pp. 494-501 (1992)]. Specifically, a mixture of a membrane specimen from the cerebral cortex, 1 nM [^3 H]-telenzepine (85 Ci/mmol; manufactured by New England Nuclear) and a test compound in 0.5 ml of tris buffer was incubated at room temperature (about 20°-25° C.) for 120 minutes. After the addition of 0.5 ml of ice-cold tris buffer, the mixture was filtered by suction through a glass filter (Packard Unifilter Plate GF/C). Then, the filter was washed four times with 1 ml portions of ice-cold tris buffer and dried at 50° C. for an hour. After the addition of a scintillator (Packard Microscinti 0), the radioactivity of [^3 H]-telenzepine adsorbed to the filter was measured with a microplate scintillation counter (Packard Topcount). The nonspecific binding of [^3 H]-telenzepine to receptors was determined by the addition of […] pirenzepine. According to the method of Cheng and Prusoff [Biochem. Pharmacol., Vol. 22, pp. 3099-3108 (1973)], the affinity of the test compound (i.e., a compound in accordance with the present invention) for the muscarinic M1 receptors was determined in terms of its dissociation constant (Ki) calculated from the concentration (IC50) of the test compound which was required to cause a 50% inhibition of the binding of [^3 H]-telenzepine used as the labeled ligand.
# [2] = target: T2, muscarinic M3 receptor (Rattus norvegicus, UniProt P08483); assay: in vivo; parameters: from tissue; host or cells: living rat, airways; details: iv, read-out: Salivary secretion ID50
# T2 sequence (P08483 whole entry): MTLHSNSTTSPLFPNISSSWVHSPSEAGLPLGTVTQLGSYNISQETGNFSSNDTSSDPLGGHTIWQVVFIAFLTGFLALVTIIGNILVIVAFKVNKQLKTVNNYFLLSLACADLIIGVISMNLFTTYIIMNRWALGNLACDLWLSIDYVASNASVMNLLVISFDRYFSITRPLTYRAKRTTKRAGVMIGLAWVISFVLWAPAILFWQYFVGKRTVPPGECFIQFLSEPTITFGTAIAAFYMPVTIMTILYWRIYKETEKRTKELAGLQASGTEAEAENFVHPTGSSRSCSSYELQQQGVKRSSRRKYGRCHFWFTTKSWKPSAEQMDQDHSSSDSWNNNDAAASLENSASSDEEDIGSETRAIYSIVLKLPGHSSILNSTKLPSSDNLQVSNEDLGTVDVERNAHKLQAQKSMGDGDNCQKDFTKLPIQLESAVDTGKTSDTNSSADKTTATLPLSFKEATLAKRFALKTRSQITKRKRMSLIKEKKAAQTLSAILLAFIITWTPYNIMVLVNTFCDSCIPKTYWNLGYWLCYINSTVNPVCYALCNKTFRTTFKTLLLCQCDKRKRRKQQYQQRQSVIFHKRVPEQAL
# Description: (§1) Tests for antagonism against muscarinic M3 receptor (in vivo)
# 2) Tests for salivary secretion in rats
# Five- to seven-weeks-old male rats of the Sprague-Dawley strain were anesthetized with sodium pentobarbital (65 mg/kg, i.p.), and a cannula was inserted into the right jugular vein for purposes of drug administration. A test compound was administered intravenously. Five minutes later, carbachol (10 μg/kg, i.v.) was administered to evoke salivary secretion. For each rat, saliva collection was started immediately after carbachol administration and continued for ten minutes. This was carried out by inserting glass capillaries (Drummond, 100 μl) into the oral cavity of the rat at intervals of one minute. The amount of collected saliva was determined on the assumption that a length of 75 mm of the glass capillary corresponded to 100 μl. Physiological saline was used in the control group. The ID50 value was calculated from the dose-response curve of the test compound using probit analysis and defined as the drug dose that inhibited the carbachol-induced salivation in the control group by 50%.
# [3] = target: T2, muscarinic M3 receptor; assay: in vivo; parameters: from tissue; host or cells: living rat, airways; details: iv, read-out: Mydriasis ED50
# Description: as §1
# 3) Tests for mydriasis in rats
# Five- to seven-weeks-old male rats of the Sprague-Dawley strain were anesthetized with pentobarbital (65 mg/kg, i.p.), and a cannula was inserted into the right jugular vein for purposes of drug administration. By using a graduated scale (pulilometer), pupillary responses to drugs were measured to the nearest 0.1 mm at the point of the greatest diameter. […] Responses were expressed as percentages of the maximal increase in pupil diameter induced by administration of atropine (30 μg/kg, i.v.). The ED50 value was calculated from the dose-response curve of the test compound using probit analysis and defined as the drug dose that induced 50% of the maximal response.
compound,measurement,setting,value
"CC(C)=CCCN1CCC(NC(=O)C(O)(c2ccccc2)C2CCC2)CC1 (stereo not drawn) [Example 1, N-[1-(4-methyl-3-pentenyl)-piperidin-4-yl]-2-cyclobutyl-2-hydroxy-2-phenylacetamide]",Ki,[1],45 nM
same,ED50,[2],0.19 mg/kg
same,ED50,[3],1.4 mg/kg
